Measured values from patent publication US11219697B2, “Osteoadsorptive fluorogenic substrate of cathepsin k for imaging osteoclast activity and migration” (The Regents of the University of California, priority 2017, dated 2022).
Entries after “also recorded” stand apart in the source; their conditions may differ. Read-outs that look alike come from different tables or passages of the source. *: point of attachment. pamidronate = 1-hydroxy-1,1-bisphosphonate, amide on Lys carboxyl, O=P(O)(O)C(O)(CCN*)P(=O)(O)O; BHQ‑1 = Black Hole Quencher-1; βAla = NCCC(=O)O

Experiments:
[1] = cited from earlier work
[2] = target: T1, Cathepsin K (Homo sapiens, UniProt P43235); settings: values found in literature; cited from earlier work
T1 construct: purchased Enzo Life Sciences
T1 sequence (P43235 115-329): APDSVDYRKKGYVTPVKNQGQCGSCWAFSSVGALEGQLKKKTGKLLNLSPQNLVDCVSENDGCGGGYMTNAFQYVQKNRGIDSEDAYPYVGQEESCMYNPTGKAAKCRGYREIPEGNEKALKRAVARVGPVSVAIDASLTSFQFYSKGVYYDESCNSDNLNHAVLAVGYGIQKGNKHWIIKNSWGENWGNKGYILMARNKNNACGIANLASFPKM

[3] = target: T1, Cathepsin K; experiment: Enzyme studies: cleavage of the probe by activated cathepsin K, initial rates, Lineweaver-Burke plot; format: biochemical
Description: Kinetic parameters Kcat and Km were determined from initial rates at 37° C. and pH 5.5 in a buffer consisting of 50 mM sodium acetate buffer with 2.5 mM EDTA, 1 mM DTT and 0.01% TRITON X-100®. Enzyme concentration was 2.5 nM, substrate concentration ranged from 0.0781 to 2.50 μM. Fluorescence measurements were done every 1 min using a Biotek Synergy H4 plate reader with black Corning 3720 96-well plates. Parameters were determined using a Lineweaver-Burke plot. Fluorescence calibration was obtained using compound 9a at concentrations between 0.00977 and 2.5 μM. Background fluorescence was estimated using intact 10a at concentrations ranging from 0.0781 to 2.50 μM.
Cathepsin K was prepared by activation of procathepsin K purchased from Enzo Life Sciences. Activation was carried out by adding […], pH 3.5 sodium acetate buffer in a 1:2 ratio to as-received proenzyme solution and leaving at 21° C. for 30 min before dilution with assay buffer. Solutions of activated enzyme were stored on ice and used within 10 min. Buffers were prepared in house according to concentrations provided by Enzo Life Sciences.

[4] = Adsorption on calcium phosphate substrates; format: physicochemical
[5] = test system: monocyte-derived human osteoclasts; experiment: Osteoclasts cultured on calcium phosphate coated microwells preadsorbed with probe, fluorescence timelapse; format: cell-based
Text: We attribute this to a lack of calcium phosphate for the probe to bind to. In several cases, osteoclasts can be seen migrating on the surface without completely dissolving the calcium phosphate and leaving a trail of enhanced fluorescence in their wake (see, e.g., FIG. 4). This is how the probe is presumed to function in vivo, by fluorescently labeling any regions exposed to osteoclast resorptive activity. […] Another phenomenon observed in all videos was a transient decrease in fluorescence within the boundaries of the osteoclast sealing zone, seen as rapidly moving dark areas around the cells (see, e.g., FIG. 5). This effect was expected and results from the pH sensitivity of carboxyfluorescein. The pH under an active osteoclast has been reported to be as low as 4.5 (Teitelbaum (2000) Science, 289(5484): 1504-1508). Carboxyfluorescein cyclizes to a nonfluorescent form when protonated and has a pKa of approximately 6.5 (Han & Burgess (2010) Chem. Rev. 110: 2709-2728; Massou et al. (2000) Biochem. Educ. 28:171-173). Thus fluorescent intensity is decreased. This is further evidence that the probe is exposed to the sub-osteoclast environment as intended. Another phenomenon observed in the timelapses was concentrated fluorescent intensity in cells themselves, both attached and detached from the substrate. […]

[6] = test system: human osteoclasts; experiment: Human osteoclasts co-cultured with human multiple myeloma cells (8226-LUC); format: cell-based; settings: co-cultured with 8226-LUC
[7] = test system: osteoclast activity; experiment: Fluorescence imaging of maxilla ex vivo in mice after tooth extraction; settings: young mice, 5 nMol/mouse
Text: FIG. 8, panels a-c, show White light (left) and fluorescence (right) images of mice after tooth extraction. Panel a) Vehicle control; Panel b) OFS-1 (5a) 5 nMol/mouse; Panel c) Positive control (4a) 5 nMol/mouse

[8] = test system: 8226-LUC human multiple myeloma cells; experiment: OFS-1 activation by multiple myeloma in humanized BLT mice; format: in vivo; settings: humanized mice carrying 8226-LUC cells
Description: FIG. 9, panels a-c, illustrates OFS-1 activation by multiple myeloma in humanized mice. 8226-LUC human multiple myeloma cells were injected to humanized BLT mice.

In the case of `O=C(O)c1ccc2c(c1)C(=O)OC21c2ccc(O)cc2Oc2cc(O)ccc21` [Carboxyfluorescein, 5-carboxyfluorescein], the pKa [1] is listed as “approximately 6.5”.

In the case of Abz-HPGGPQ-EDN2Ph, the “Kcat (literature value)” value [2] is given as 0.5 ± 0.03 s⁻¹ and the Km [2] is given as 1.2 ± 0.2 µM.

For “OFS-1: bone-targeted pamidronate probe with 5-FAM fluorophore and BHQ-1 quencher linked by cathepsin K peptide Gly-His-Pro-Gly-Gly-Pro-Gln-Gly ({BHQ‑1}-GHPGGPQG-{βAla-K(5-FAM)-pamidronate})”, the Kcat ([3]; in solution at 37° C., pH 5.5) was 0.2 ± 0.03 s⁻¹, the Km ([3]; in solution at 37° C., pH 5.5) was 1.7 ± 0.2 µM and the “Cleavage/activation by cathepsin K” value ([3]; purified cathepsin K) was “cleaved by cathepsin K albeit at a slower rate; also recorded: activated by purified cathepsin K”. For the same compound, the “Adsorption on calcium phosphate substrates” value [4] was “avidly adsorbed on calcium phosphate substrates; also recorded: found to adsorb on calcium phosphate substrates”, the “Fluorescent signal in response to osteoclast resorptive activity” value [5] was “give a fluorescent signal in response to resorptive activity” and the “Fluorescent signal in response to osteoclast resorptive activity” value ([5]; listed as USC FRET-1) was “increased fluorescence around cells that were actively resorbing hydroxyapatite (HA)”. For the same compound, the “OFS-1 activation by osteoclasts in co-culture with multiple myeloma cells” value [6] was “significantly increased OFS-1 activation”, the “Fluorescent signal in maxilla ex vivo after tooth extraction” value [7] was “increased fluorescent signal in maxilla ex vivo; also recorded: enhanced signal in response to tooth extraction” and the “Probe activation / fluorescent signal at multiple myeloma engrafted sites” value [8] was “localized at the multiple myeloma (8226-LUC) engrafted site; also recorded: Strong activation”.
